In patent US7897563B2, “Use of oligomers and polymers for drug solubilization, stabilization, and delivery” (Soane Family Trust, priority 2001, dated 2011):

Assays:
[1] = octanol/water, nominal temperature of 25 C; from table in CRC Handbook of Chemistry and Physics; cited from earlier work
[2] = Experimental: Log P values measure the partitioning of a molecule between an octanol-rich and a water-rich layer in contact with one another (see CRC Handbook of Chemistry and Physics, 79th edition, Lide, ed., pp. 16-42-16-46, CRC Press, 1998; and references within, all of which are incorporated herein by reference). Log P values are measured at a nominal temperature of 25 C. More preferably, hydrophobic means having a log P value greater than about 0.5, even more preferably a log P value greater than about 1, even more preferably a log P value greater than about 1.5, and most preferably a log P value greater than about 2.

CCCCOC(C)=O [butyl acetate]
log P [1]: 1.82

poly(lactic acid)
log P (estimate from a similar small molecule) [2]: approximately 0.2
